From patent US20020155172A1, “Methods and compounds for decreasing cell toxicity or death” (priority 2000, published 2002)

Assays:
[1] = system: HeLa cells transfected with Q79-GFP; assay: Cellular ATP levels (ATPLite) in Q79 expressing HeLa cells; type: cell-based
Procedure: We also investigated whether Congo red prevented other cellular events during cell death, including ATP depletion, caspase activation, and protein synthesis inhibition. HeLa cells were transfected with the Q79-GFP construct. Forty-eight hours later, the viability of cells expressing expanded polyglutamine repeats was determined by measuring cellular ATP levels, suing an ATPLite™ kit, according to the directions provided by the manufacturer (Packard, Co.) (FIG. 5A).
To determine the effect of Congo red (100 μM) on polyglutamine-induced cell toxicity. HeLa cells were transiently transfected with Q79-GFP, and six hours later were administered various concentrations of Congo red. Cell viability was assayed 72 hours after transfection, by measuring the level of ATP in each sample. ATP levels in cells expressing Q79 were determined by using the ATPLite™ kit as recommended by the manufacturer (Packard, Inc.). Briefly, cells were transfected with Q79 and treated 6 hours after transfection. Forty-two hours later, the levels of ATP were determined. (FIG. 5C).
A high-throughput method for identifying compounds that decrease cell toxicity or death has been designed. In this method, cells were seeded at 2×10^5 cells in 100 mm dishes. The next day the plated cells were transiently transfected with a plasmid encoding an expanded polyglutamine repeat, for example, Q79. Three hours later, transfection efficiency was assessed. Plates containing cells having 10-20% transfection efficiency at this 3 hour time point were trypsinized and re-plated at 600 or at 1500 cells per well in 384 well plates with clear bottoms. After 6 hours, the candidate compounds were added to the multi-well plates. The cells were cultured for 48 hours and ATP levels were determined using an ATPLite™ kit. Data was then expressed in either arbitrary units, or as relative ratio of ATP levels in Q79 transfected cells in compound-treated relative to vehicle-treated samples.
Derivatives of Congo red (commercially available from Sigma/Aldrich) were tested for their ability to alter cell toxicity and death by measuring ATP depletion and luciferase expression. The assay was carried out as described above for the high-throughput identification of compounds. Briefly, HeLa cells were transiently transfected with a Q79/GFP plasmid and were subsequently treated with various concentrations of Congo red, or 25 μM of each of Direct Orange 6, Direct Red 1, Direct Orange 1, Direct Black 51, Direct Orange 8, Direct Yellow 26, Direct Yellow 28, or Direct Blue 158. Drug treatment continued for 6 hours and then 48 hours later, ATP levels were measured in these cells and compared to the ATP levels in cells that were transiently transfected with GFP only, and also received the compound.

[2] = system: FADDdn, caspase-8dn, and HD exon-1 (Q25)-GFP; assay: Recruitment of polyglutamine interacting proteins; type: cell-based; conditions: HeLa co-transfected with Q-79
Excerpt: FIG. 7A is a graph of the effect of Congo red or ZVAD on the recruitment of caspase-8, a death domain, or proteins containing short polyglutamine repeats by expanded polyglutamine oligomerization in cells transfected with a Q79-GFP expression construct and a caspase-8 (GFP-casp 8DN), death domain (GFP-FADD DN), or short polyglutamine (HD-1 (Q25)-GFP) protein recruitment.
We co-transfected HeLa cells with Q-79 and one of the following expression constructs, GFP-FADDdn (GFP fused to the death domain of FADD adapter protein, that generates a dominant negative FADD polypeptide (missing the first 80 amino acids of the full length protein)), GFP-caspase-8dn (GFP-tagged C360S mutant of caspase-8, generating a dominant negative caspase-8 polypeptide; Sanchez et al., supra), or GFP-exon-1 (Q25) (a GFP fusion construct containing the first exon of human huntingtin protein, encoding a 25 polyglutamine stretch; Kazantsev et al., Proc. Natl. Acad. Sci. USA 96:[…], 1999), in the presence of ZVAD or of Congo red (FIGS. 7A and B).

SMILES: Nc1c(/N=N/c2ccc(-c3ccc(/N=N/c4cc(S(=O)(=O)O)c5ccccc5c4N)cc3)cc2)cc(S(=O)(=O)O)c2ccccc12 [Congo red, diphenyldiazo-bis-alpha-napthylaminesulfonate]
- protection from polyglutamine repeat-induced cell death (ATP levels) ([1]; 25 or 50 μM, Q79-GFP): very effective at protecting cells
- ATP loss ([1]; HA-tagged Q79-GFP, caspase-8 experiment): significantly inhibited ATP loss
- concentration at which protection from polyglutamine repeat-induced cell death begins (ATP levels) ([1]; Q79-GFP, treated six hours after transfection): 12 µM
- recruitment of FADDdn, caspase-8dn, and HD exon-1 (Q25)-GFP [2]: decreased the concurrent recruitment of FADDdn, caspase-8dn, and HD exon-1 (Q25)-GFP
